# According to US20090176817A1, “Method of Treatment of Diarrhea-Predominant Irritable Bowel Syndrome in a Subject” (priority 2005, published 2009):
# Marks after values point to notes of the source that are not given here.
# Assays:
# human 5-HT3 receptor = molecular target: T1, human 5-HT3 receptor (Homo sapiens, UniProt P46098); assay: 5-HT3 receptor binding
# T1 sequence (P46098 24-478): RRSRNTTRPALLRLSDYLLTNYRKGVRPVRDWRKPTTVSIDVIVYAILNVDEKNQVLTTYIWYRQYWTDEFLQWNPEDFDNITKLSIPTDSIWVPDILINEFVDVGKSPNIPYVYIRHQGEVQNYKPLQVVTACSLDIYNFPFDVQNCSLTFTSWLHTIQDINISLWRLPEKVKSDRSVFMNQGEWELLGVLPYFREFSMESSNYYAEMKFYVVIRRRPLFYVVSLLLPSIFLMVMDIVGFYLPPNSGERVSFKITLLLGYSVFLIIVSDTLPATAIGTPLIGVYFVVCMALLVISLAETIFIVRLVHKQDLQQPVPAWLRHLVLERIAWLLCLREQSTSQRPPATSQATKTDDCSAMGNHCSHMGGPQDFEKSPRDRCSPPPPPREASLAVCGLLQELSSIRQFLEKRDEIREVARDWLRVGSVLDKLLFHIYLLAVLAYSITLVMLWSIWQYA
# [1] = Study S.241.1.103: 14C mass balance, 8 mg oral and IV; assay type: in vivo, human
# Method: The extent of absorption, distribution, metabolism, and elimination of cilansetron has been examined in an open-label, randomized, two period, crossover, mass balance study in 6 healthy male subjects who were treated with a single oral and single […] (30-minute infusion) of 8 mg ^14C-labeled (50 K μCi) cilansetron, with a washout of at least 2 weeks between periods. The ^14C-cilansetron was appropriately labeled in the aromatic ring and the label was therefore not metabolically labile. Serial blood samples, urine collection, and fecal collection were performed up to 144 hours following each dose. ^14C-radioactivity was measured in plasma, whole blood, urine, and feces, and unchanged cilansetron was measured in plasma and urine. Identification of metabolites of cilansetron was performed in plasma, urine, and feces. The results of this study are presented in Table 2.7.2.3.15 and the mean concentration-time plots for ^14C-radioactivity and unchanged cilansetron are shown in FIG. 24 and FIG. 25.
# Cilansetron and metabolite profiles in plasma, urine, and feces were evaluated using HPLC separation followed by determination of radioactivity using scintillation counting. Cilansetron, (4R)-hydroxy cilansetron, and (4S)-hydroxy cilansetron accounted for 29.3%, 25.7%, and 13.8% of the total radioactivity, respectively, in plasma at 6 hours after oral administration, and for 46.2%, 20.0% and 14.1%3 of the total radioactivity in plasma at 3 hours after IV administration. The cumulative percent of cilansetron and 4-hydroxy metabolites excreted in urine over a 48-hour interval following dosing was 0.5% and 32.8% of the dose, respectively, following oral dosing, and 1.1% and 31.9% of the dose following IV dosing. In the case of fecal excretion over a 96-hour postdose, cilansetron, (4R)-hydroxy cilansetron, and (4S)-hydroxy cilansetron accounted for 1.2%, 6.9%, and 4.6% of the dose following oral administration, and 1.3%, 5.1%, and 11.3% of the dose following IV administration.
# [2] = Study S.241.1.109: interaction with fluvoxamine 50 mg QD; assay type: in vivo, human; conditions: for AUC(0-τ) / Cmax / Tmax: steady state; for AUC(0-τ): AUC(0-8); for AUC(0-τ) / Cmax: arith. mean; for Tmax: median
# Method: In an open-label, randomized, parallel-group study in three groups of 12 healthy, male and female subjects (aged 19 to 45 years), subjects received a 2 mg single dose of cilansetron on Day 1, 2 mg TID on Days 2-13, and a 2 mg single dose on Day 14. […] All morning doses of cilansetron and enzyme inhibitors were administered immediately after a standard breakfast. […] For each treatment group, log-transformed cilansetron AUC(0-τ) and Cmax values on Day 14 (cilansetron+enzyme inhibitor) were compared statistically versus values on Day 7 (cilansetron alone).
# FIG. 42, FIG. 43, and FIG. 44 present geometric mean steady-state plasma concentration-time profiles for cilansetron and its 4-hydroxy metabolites in the absence and presence of concomitant fluvoxamine.
# [3] = Study S.241.1.109: single and multiple dose pharmacokinetics 2 mg TID; assay type: in vivo, human
# Method: In an open-label, randomized, parallel-group study in 36 healthy, male and female subjects (19-45 years), subjects received a 2 mg single dose of cilansetron on Day 1 and 2 mg TID on Days 2-7. The morning doses on Days 1 and 7 were administered immediately after a standard breakfast. Serial blood samples for the measurement of single-dose and steady-state pharmacokinetics of cilansetron and its main metabolites, (4R)-hydroxy cilansetron and (4S)-hydroxy cilansetron, were collected on Day 1 (single dose) up to 24 hours postdose and on Day 7 (multiple dose) up to 8 hours postdose.
# [4] = Cilansetron 2 mg TID + Fluvoxamine 50 mg once daily
# [5] = Cilansetron 2 mg TID alone (fluvoxamine group)
# [6] = cilansetron + fluvoxamine / cilansetron alone, ANOVA of log-transformed data
# [7] = both sexes, human, in vivo, 2 mg, Cmax
smiles,measurement,setting,value
Cc1nccn1CC1CCc2c(c3cccc4c3n2CC[C@@H]4O)C1=O (stereo partly drawn) [(4S)-hydroxy cilansetron],pKi,human 5-HT3 receptor,8.0
same,Share of total radioactivity in plasma,[1]; 3 hours after IV administration,14.1%
same,Share of total radioactivity in plasma,[1]; 6 hours after oral administration,13.8%
same,Fecal excretion over 96 hours,[1]; IV,11.3 % of the dose
same,Fecal excretion over 96 hours,[1]; oral,4.6 % of the dose
same,AUC(0-τ),[2]; [4],7.17 ng·h/mL
same,Cmax,[2]; [4],1.07 ng/mL
same,Tmax,[2]; [4],2.00 h
same,AUC(0-τ),[2]; [5],7.29 ng·h/mL
same,Cmax,[2]; [5],1.17 ng/mL
same,Tmax,[2]; [5],3.00 h
same,AUC(0-τ) Ratio (Treatment B/A),[2]; [6],101%
same,Cmax Ratio (Treatment B/A),[2]; [6],93%
same,AUC(0-τ),"[3]; 2 mg TID, Day 7",7.91 (19) ng · h/mL
same,Cmax,"[3]; 2 mg TID, Day 7",1.25 (18) ng/mL
same,AUC(0-inf),"[3]; 2 mg single dose, Day 1",7.42 (20) ng · h/mL
same,AUC(0-τ),"[3]; 2 mg single dose, Day 1",3.26 (19) ng · h/mL
same,Cmax,"[3]; 2 mg single dose, Day 1",0.605 (22) ng/mL
same,T½,"[3]; 2 mg single dose, Day 1",7.48 (26) h
same,AUC accumulation ratio Day 7/Day 1,[3]; AUC(0-τ),239^d %
same,Linearity Ratio,[3]; AUC(0-τ) Day 7 to AUC(0-inf) Day 1,108%
same,Tmax,"[3]; Day 1, median (min, max)","4.00 (1.50, 6.00)^b h"
same,Accumulation following TID dosing (mean increase),"[3]; Day 7:Day 1, AUC(0-τ) and Cmax",105-139%
same,Tmax,"[3]; Day 7, median (min, max)","3.00 (1.75, 4.00)^b h"
same,Time of peak concentration,[3]; after cilansetron dosing,3 to 4 h
same,half-life,[3]; approximate mean,~7.5 h
same,AUC(0-τ) (Day 7) to AUC(0-inf) (Day 1) mean ratio,"[3]; human, in vivo",1.08
same,Cmax accumulation ratio Day 7/Day 1,"[3]; human, in vivo",205^e %
same,Accumulation following TID dosing,[3]; in vivo,greater than 2 fold
"Cc1nccn1C[C@H]1CCc2c(c3cccc4c3n2CCC4)C1=O [Cilansetron, (R)-(−)-4,5,6,8,9,10-hexahydro-10-[(2-methyl-1H-imidazol-1-yl)methyl]-11H-pyrido-[3,2,1-jk]-carbazol-11-one]",pKi,human 5-HT3 receptor,9.4
same,AUC(0-last),"[1]; human, in vivo, iv",999 (223) ng[-equiv] · h/mL
same,AUC(0-inf),"[1]; human, in vivo, iv, 8 mg",1217 (299) ng[-equiv] · h/mL
same,AUC(0-last),"[1]; human, in vivo, po",908 (244) ng[-equiv] · h/mL
same,CL/F (blood),"[1]; human, in vivo, po",2857 (1912) mL/min
same,Cmax,"[1]; human, in vivo, po",171 (63) ng[-equiv]/mL
same,AUC(0-inf),"[1]; human, in vivo, po, 8 mg",1047 (248) ng[-equiv] · h/mL
same,Absorption calculated from percentage renal recovery,"[1]; male, human, in vivo",99.8%
same,Share of urinary excretion within 24 hours of dosing,"[1]; male, human, in vivo",≥ 87%
same,Dose recovered in urine as unchanged drug,"[1]; male, human, in vivo, 144 h",< 1%
same,AUC(0-inf),"[1]; male, human, in vivo, iv",209 ng·h/mL
same,AUC(0-t),"[1]; male, human, in vivo, iv",200 ng·h/mL
same,CL (plasma),"[1]; male, human, in vivo, iv",118 (42) mL/min
same,Cumulative percent excreted in urine over 48 hours,"[1]; male, human, in vivo, iv",1.1 % of the dose
same,Fecal excretion over 96 hours,"[1]; male, human, in vivo, iv",1.3 % of the dose
same,Radioactivity in blood cells,"[1]; male, human, in vivo, iv",9.5 (4.1) %
same,"Recovery, Fecal","[1]; male, human, in vivo, iv",28.9 (1.8) %
same,"Recovery, Total","[1]; male, human, in vivo, iv",92.3 (1.5) %
same,T½,"[1]; male, human, in vivo, iv",107 h
same,Vd,"[1]; male, human, in vivo, iv",85.3 L
same,Vz,"[1]; male, human, in vivo, iv",1001 (162) L
same,half-life,"[1]; male, human, in vivo, iv",1.51 h
same,Share of total radioactivity in plasma,"[1]; male, human, in vivo, iv, 3 h",46.2%
same,clearance,"[1]; male, human, in vivo, iv, CL (blood)",1040 mL/min
same,clearance,"[1]; male, human, in vivo, iv, CL (plasma)",655 mL/min
same,AUC(0-inf),"[1]; male, human, in vivo, po",98.2 ng·h/mL
same,AUC(0-t),"[1]; male, human, in vivo, po",91.4 ng·h/mL
same,Absorption of orally administered cilansetron,"[1]; male, human, in vivo, po",higher than 90%
same,Cmax,"[1]; male, human, in vivo, po",52.9 ng/mL
same,Cumulative percent excreted in urine over 48 hours,"[1]; male, human, in vivo, po",0.5 % of the dose
same,Fecal excretion over 96 hours,"[1]; male, human, in vivo, po",1.2 % of the dose
same,Radioactivity in blood cells,"[1]; male, human, in vivo, po",10.5 (5.7) %
same,"Recovery, Fecal","[1]; male, human, in vivo, po",27.5 (3.2) %
same,"Recovery, Total","[1]; male, human, in vivo, po",90.8 (2.2) %
same,Tmax,"[1]; male, human, in vivo, po",0.51 h
same,Vd/F,"[1]; male, human, in vivo, po",155 L
same,Vz/F,"[1]; male, human, in vivo, po",836 (275) L
same,half-life,"[1]; male, human, in vivo, po",1.23 h
same,Share of total radioactivity in plasma,"[1]; male, human, in vivo, po, 6 h",29.3%
same,bioavailability,"[1]; male, human, in vivo, po, Absolute Bioavailability",49%
same,Increase in cilansetron exposure with fluvoxamine,"[2]; both, human, in vivo",3.7-6.6 fold
same,Mean AUC increase with fluvoxamine,"[2]; both, human, in vivo",6.6 fold
same,Mean Cmax increase with fluvoxamine,"[2]; both, human, in vivo",3.7 fold
same,Tmax,"[3]; both sexes, human, in vivo",1.75 h
same,Tmax at 7 day,"[3]; both sexes, human, in vivo",1.5 h
same,AUC(0-inf),"[3]; both sexes, human, in vivo, 2 mg",22.3 ng·h/mL
same,AUC,"[3]; both sexes, human, in vivo, 2 mg, AUC(0-τ)",21 ng·h/mL
same,Cmax,[3]; [7],6.63 ng/mL
same,Cmax at 7 day,[3]; [7],7.55 ng/mL
same,Cmax,"[3]; both sexes, human, in vivo, 2 mg, Plasma Cmax",6 to 7 ng/mL
same,half-life,"[3]; both sexes, human, in vivo, 2 mg, T½",1.6 h
same,half-life,"[3]; both sexes, human, in vivo, Half-life",1 to 2 h
same,AUC accumulation ratio Day 7/Day 1,"[3]; both, human, in vivo",105^d %
same,Cmax accumulation ratio Day 7/Day 1,"[3]; both, human, in vivo",110^e %
same,Linearity Ratio,"[3]; both, human, in vivo",99%
same,AUC(0-τ),"[3]; both, human, in vivo, 2 mg",23.5 (44) ng · h/mL
same,Intersubject % CV for AUC and Cmax,"[3]; both, human, in vivo, 2 mg",44-56%
same,T½,"[3]; both, human, in vivo, 2 mg",1.64 (18) h
